Assay results: patent US20080125424A1, “Derivatives of urea and related diamines, methods for their manufacture, and uses therefor” (priority 2006, published 2008)

Target: T1, human parathyroid cell Ca2+ receptor (hPCaR) (Homo sapiens, UniProt P41180)
T1 construct: expressed in transfected cells
T1 sequence (P41180 20-1078): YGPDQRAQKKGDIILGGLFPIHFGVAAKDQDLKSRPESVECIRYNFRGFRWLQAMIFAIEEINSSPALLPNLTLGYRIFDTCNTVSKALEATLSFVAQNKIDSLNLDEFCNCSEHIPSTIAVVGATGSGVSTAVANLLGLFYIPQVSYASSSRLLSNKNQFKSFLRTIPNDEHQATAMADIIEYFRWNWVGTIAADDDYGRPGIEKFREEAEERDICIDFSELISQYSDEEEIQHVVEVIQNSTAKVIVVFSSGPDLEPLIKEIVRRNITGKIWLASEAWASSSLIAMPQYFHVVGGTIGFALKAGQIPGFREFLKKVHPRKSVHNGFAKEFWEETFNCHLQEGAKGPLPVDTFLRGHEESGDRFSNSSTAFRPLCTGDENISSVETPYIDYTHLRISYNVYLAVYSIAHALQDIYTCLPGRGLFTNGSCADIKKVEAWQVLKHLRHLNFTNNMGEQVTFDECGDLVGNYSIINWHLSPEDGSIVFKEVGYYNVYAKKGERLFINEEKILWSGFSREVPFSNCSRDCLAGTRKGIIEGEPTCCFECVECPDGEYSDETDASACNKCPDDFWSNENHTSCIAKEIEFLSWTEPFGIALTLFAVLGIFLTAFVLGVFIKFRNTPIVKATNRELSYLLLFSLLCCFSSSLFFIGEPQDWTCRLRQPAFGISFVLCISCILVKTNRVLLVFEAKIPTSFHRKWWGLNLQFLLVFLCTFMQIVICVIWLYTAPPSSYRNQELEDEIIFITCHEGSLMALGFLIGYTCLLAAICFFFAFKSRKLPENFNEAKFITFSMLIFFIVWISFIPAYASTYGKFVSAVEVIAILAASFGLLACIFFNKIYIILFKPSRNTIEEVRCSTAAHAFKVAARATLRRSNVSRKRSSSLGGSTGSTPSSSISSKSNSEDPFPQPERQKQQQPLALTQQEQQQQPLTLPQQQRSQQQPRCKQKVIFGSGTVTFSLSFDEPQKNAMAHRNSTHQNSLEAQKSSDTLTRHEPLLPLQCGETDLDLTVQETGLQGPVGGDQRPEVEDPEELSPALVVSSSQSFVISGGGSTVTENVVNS
Assay: [Ca2+]i fluorescence assay in HEK 293 4.0-7 cells expressing hPCaR
Type: cell-based
Details: buffer with 1 mM CaCl2
Outline: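 HEK 293 clone 4.0-7 stably expressing human parathyroid Ca2+ receptor, seeded overnight, then loaded 90 min at room temperature with calcium dye in parathyroid cell buffer (pH 7.45) with 0.5% BSA and 1 mM CaCl2. Fluorescence after compound addition read at ex 485/em 530 nm.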

SMILES	EC50
NS(=O)(=O)c1ccc(-c2csc(NC(=O)N(CCCC(=O)O)CCC(c3ccccc3)c3ccccc3)n2)cc1 [Example 124]	< 100 nM
CC(C)(C)OC(=O)N1CCC(NCCN(CCC(c2ccccc2)c2ccccc2)C(=O)Nc2nc3ccccc3s2)CC1 [Example 159, 4-{2-[3-Benzothiazol-2-yl-1-(3,3-diphenyl-propyl)-ureido]-ethylamino}-piperidine-1-carboxylic acid tert-butyl ester]	100 to 1000 nM
CS(=O)(=O)c1ccc(-c2csc(NC(=O)N(CCC(=O)O)CCC(c3ccccc3)c3ccccc3)n2)cc1 [Example 119, 3-(1-(3,3-diphenylpropyl)-3-(4-(4-(methylsulfonyl)phenyl)thiazol-2-yl)ureido)propanoic acid]	100 to 1000 nM
CS(=O)(=O)Nc1ccc(-c2nc(NC(=O)N(CCNC(=O)C3CCCNC3)CCC(c3ccccc3)c3ccccc3)sc2Cl)cc1 (centres unmarked) [Example 131, 3-(5-chloro-4-(4-(methylsulfonamido)phenyl)thiazol-2-yl)-1-(3,3-diphenylpropyl)-1-(2-(piperidine-3-carboxamido)ethyl)urea]	< 100 nM
O=C(CCCN(CCC(c1ccccc1)c1ccccc1)C(=O)Nc1nc2ccccc2s1)NCc1ccccc1 [Example 86, 3-(benzo[d]thiazol-2-yl)-1-(4-(benzylamino)-4-oxobutyl)-1-(3,3-diphenylpropyl)urea]	< 100 nM
O=C(O)CCCN(CCC(c1ccccc1)c1ccccc1)C(=O)Nc1nc(-c2ccccc2)c(Cl)s1 [Example 83, 4-(3-(5-chloro-4-phenylthiazol-2-yl)-1-(3,3-diphenylpropyl)ureido)butanoic acid]	< 100 nM
CS(=O)(=O)Nc1ccc(-c2csc(NC(=O)N(CCCC(N)=O)CCC(c3ccccc3)c3ccccc3)n2)cc1 [Example 68, 1-(4-amino-4-oxobutyl)-1-(3,3-diphenylpropyl)-3-(4-(4-(methylsulfonamido)phenyl)thiazol-2-yl)urea]	< 100 nM
O=C(Nc1nc2ccccc2s1)N(CCO)CCC(c1ccccc1)c1ccccc1 [Example 175, 3-Benzothiazol-2-yl-1-(3,3-diphenylpropyl)-1-(2-hydroxy-ethyl)-urea]	100 to 1000 nM
O=C(O)CCCN(CCC(c1ccccc1)c1ccccc1)C(=O)Nc1nc2ccccc2s1 [Example 104, 4-(3-(benzo[d]thiazol-2-yl)-1-(3,3-diphenylpropyl)ureido)butanoic acid]	100 to 1000 nM
C[C@H]1CNCCN1C(=O)CCN(CCC(c1ccccc1)c1ccccc1)C(=O)Nc1nc2ccccc2s1 [Example 123, (S)-3-(benzo[d]thiazol-2-yl)-1-(3,3-diphenylpropyl)-1-(3-(2-methylpiperazin-1-yl)-3-oxopropyl)urea]	1000 to 5000 nM
O=C(CCCN(CCC(c1ccccc1)c1ccccc1)C(=O)Nc1nc2ccccc2s1)N1CCOCC1 [Example 94, 3-(benzo[d]thiazol-2-yl)-1-(3,3-diphenylpropyl)-1-(4-morpholino-4-oxobutyl)urea]	100 to 1000 nM
CS(=O)(=O)c1ccc(-c2csc(NC(=O)N(CCCC(=O)O)CCC(c3ccccc3)c3ccccc3)n2)cc1 [Example 79, 4-(1-(3,3-diphenylpropyl)-3-(4-(4-(methylsulfonyl)phenyl)thiazol-2-yl)ureido)butanoic acid]	< 100 nM
CS(=O)(=O)c1ccc(-c2nc(NC(=O)N(CCCC(=O)O)CCC(c3ccccc3)c3ccccc3)sc2Cl)cc1 [Example 72, 4-(3-(5-chloro-4-(4-(methylsulfonyl)phenyl)thiazol-2-yl)-1-(3,3-diphenylpropyl)ureido)butanoic acid]	< 100 nM
CC(CN(CCC(c1ccccc1)c1ccccc1)C(=O)Nc1nc2ccccc2s1)C(=O)O (centres unmarked) [Example 122, 3-(3-(benzo[d]thiazol-2-yl)-1-(3,3-diphenylpropyl)ureido)-2-methylpropanoic acid]	1000 to 5000 nM
N#Cc1ccc(-c2nc(NC(=O)N(CCCC(=O)O)CCC(c3ccccc3)c3ccccc3)sc2Cl)cc1 [Example 92, 4-(3-(5-chloro-4-(4-cyanophenyl)thiazol-2-yl)-1-(3,3-diphenylpropyl)ureido)butanoic acid]	100 to 1000 nM
NC(=O)CCCN(CCC(c1ccccc1)c1ccccc1)C(=O)Nc1nc(-c2ccccc2)c(Cl)s1 [Example 81, 1-(4-amino-4-oxobutyl)-3-(5-chloro-4-phenylthiazol-2-yl)-1-(3,3-diphenylpropyl)urea]	< 100 nM
CS(=O)(=O)Nc1ccc(-c2csc(NC(=O)N(CCCC(=O)N[C@@H]3CCCNC3)CCC(c3ccccc3)c3ccccc3)n2)cc1 [Example 67, (R)-1-(3,3-diphenylpropyl)-3-(4-(4-(methylsulfonamido)phenyl)thiazol-2-yl)-1-(4-oxo-4-(piperidin-3-ylamino)butyl)urea]	< 100 nM
CS(=O)(=O)Nc1ccc(-c2nc(NC(=O)N(CCC(c3ccccc3)c3ccccc3)CCS(N)(=O)=O)sc2Cl)cc1 [Example 136, 2-[{[(5-chloro-4-{4-[(methylsulfonyl)amino]phenyl}-1,3-thiazol-2-yl)amino]carbonyl}(3,3-diphenylpropyl)amino]ethanesulfonamide]	< 100 nM
CN(C)C(=O)CCCN(CCC(c1ccccc1)c1ccccc1)C(=O)Nc1nc2ccccc2s1 [Example 89, 3-(benzo[d]thiazol-2-yl)-1-(4-(dimethylamino)-4-oxobutyl)-1-(3,3-diphenylpropyl)urea]	< 100 nM
CS(=O)(=O)Nc1ccc(-c2nc(NC(=O)N(CCN)CCC(c3ccccc3)c3ccccc3)sc2Cl)cc1 [Example 135, 1-(2-aminoethyl)-3-(5-chloro-4-(4-(methylsulfonamido)phenyl)thiazol-2-yl)-1-(3,3-diphenylpropyl)urea]	< 100 nM
CSCCCN(CCC(c1ccccc1)c1ccccc1)C(=O)Nc1nc(-c2ccc(NS(C)(=O)=O)cc2)c(Cl)s1 [Example 138, 3-(5-chloro-4-(4-(methylsulfonamido)phenyl)thiazol-2-yl)-1-(3,3-diphenylpropyl)-1-(3-(methylthio)propyl)urea]	< 100 nM
CCOC(=O)CNCCN(CCC(c1ccccc1)c1ccccc1)C(=O)Nc1nc2ccccc2s1 [Example 151, {2-[3-Benzothiazol-2-yl-1-(3,3-diphenyl-propyl)-ureido]-ethylamino}-acetic acid ethyl ester]	100 to 1000 nM
O=C(CCN(CCC(c1ccccc1)c1ccccc1)C(=O)Nc1nc(-c2ccccc2)cs1)N[C@H]1CCCNC1 [Example 93, (S)-1-(3,3-diphenylpropyl)-1-(3-oxo-3-(piperidin-3-ylamino)propyl)-3-(4-phenylthiazol-2-yl)urea]	100 to 1000 nM
O=C(CCCN(CCC(c1ccccc1)c1ccccc1)C(=O)Nc1nc2ccccc2s1)N[C@@H]1CCCNC1 [Example 71, (R)-3-(benzo[d]thiazol-2-yl)-1-(3,3-diphenylpropyl)-1-(4-oxo-4-(piperidin-3-ylamino)butyl)urea]	< 100 nM
CS(=O)(=O)Nc1ccc(-c2nc(NC(=O)N(CCOC(N)=O)CCC(c3ccccc3)c3ccccc3)sc2Cl)cc1 [Example 132, 2-(3-(5-chloro-4-(4-(methylsulfonamido)phenyl)thiazol-2-yl)-1-(3,3-diphenylpropyl)ureido)ethyl carbamate]	< 100 nM
O=C(Nc1nc2ccccc2s1)N(CCNCC1CCN(C(=O)OCc2ccccc2)CC1)CCC(c1ccccc1)c1ccccc1 [Example 149, 4-({2-[3-Benzothiazol-2-yl-1-(3,3-diphenyl-propyl)-ureido]-ethylamino}-methyl)piperidine-1-carboxylic acid benzyl ester]	100 to 1000 nM
